Test results published in ChEMBL document CHEMBL5649166, “RIP3 induces apoptosis independent of pronecrotic kinase activity” (Mol Cell, 2014).

How the values were obtained:
SVEC4-10 [1] = assay: Cytotoxicity against mouse SVEC4-10 cells assessed as induction of apoptosis at 3 to 10 uM incubated for 18 hrs by Cell Titer-Glo luminescent cell viability assay; type: toxicity, cell-based; details: svec4-10, 18 h, dose 3-10 µM
L929 [2] = assay: Cytotoxicity against mouse L929 cells assessed as induction of apoptosis at 3 to 10 uM incubated for 18 hrs by Cell Titer-Glo luminescent cell viability assay; type: toxicity, cell-based; details: l929, 18 h, dose 3-10 µM
3T3SA [3] = assay: Cytotoxicity against mouse 3T3SA cells assessed as induction of apoptosis at 3 to 10 uM incubated for 18 hrs by Cell Titer-Glo luminescent cell viability assay; type: toxicity, cell-based; details: dose 3-10 µM
MEF [4] = assay: Cytotoxicity against MEF cells assessed as induction of apoptosis at 3 to 10 uM incubated for 18 hrs by Cell Titer-Glo luminescent cell viability assay; type: toxicity, cell-based; details: mouse, dose 3-10 µM
SVEC4-10 [5] = assay: Cytotoxicity against mouse SVEC4-10 cells assessed as induction of apoptosis at 10 uM incubated for 18 hrs in presence of zVAD by Cell Titer-Glo luminescent cell viability assay; type: toxicity, cell-based; details: svec4-10, 18 h
L929 [6] = assay: Cytotoxicity against mouse L929 cells assessed as induction of apoptosis at 10 uM incubated for 18 hrs in presence of zVAD by Cell Titer-Glo luminescent cell viability assay; type: toxicity, cell-based; details: l929, 18 h
3T3SA [7] = assay: Cytotoxicity against mouse 3T3SA cells assessed as induction of apoptosis at 10 uM incubated for 18 hrs in presence of zVAD by Cell Titer-Glo luminescent cell viability assay; type: toxicity, cell-based
MEF [8] = assay: Cytotoxicity against MEF cells assessed as induction of apoptosis at 10 uM incubated for 18 hrs in presence of zVAD by Cell Titer-Glo luminescent cell viability assay; type: toxicity, cell-based; details: mouse
3T3SA [9] = assay: Induction of apoptosis in mouse 3T3SA cells assessed as cell death by measuring percent of PI positive cells incubated for 8 hrs by PI staining based flow cytometric analysis (reference value: 11.4%); type: toxicity
3T3SA [10] = assay: Induction of apoptosis in mouse 3T3SA cells assessed as accumulation of cleaved caspase-3 by measuring percentage of cleaved caspase-3 positive cells measured after 2.5 hrs by immunoblot analysis (reference value: 4%); type: toxicity, cell-based
3T3SA [11] = assay: Induction of apoptosis in mouse 3T3SA cells assessed as membrane blebbing incubated for 2.5 hrs; type: toxicity, cell-based
3T3SA [12] = assay: Induction of apoptosis in mouse 3T3SA cells assessed as cleaved caspase 8 accumulation incubated for 2.5 hrs by immunoblot analysis; type: toxicity, cell-based
SVEC4-10 [13] = assay: Induction of apoptosis in mouse SVEC4-10 cells transfected with MCMV M45-encoded vIRA incubated for 18 hrs by Cell Titer-Glo luminescent cell viability assay; type: toxicity, cell-based; details: svec4-10, 18 h
3T3SA [14] = assay: Induction of apoptosis in mouse 3T3SA cells incubated for 18 hrs in presence of BMS-345541 by Cell Titer-Glo luminescent cell viability assay; type: toxicity, cell-based
MEF [15] = assay: Induction of apoptosis in TNF-/- MEF cells incubated for 18 hrs by Cell Titer-Glo luminescent cell viability assay; type: toxicity, cell-based; details: mouse
MEF [16] = assay: Induction of apoptosis in RIP3-/- MEF cells transfected with RIP3 K51A mutant incubated for 18 hrs by Cell Titer-Glo luminescent cell viability assay; type: toxicity, cell-based; details: mouse
3T3SA [17] = assay: Induction of apoptosis in RIP3shRNA transfected mouse 3T3SA cells co-transfected with shRNA-resistant RIP3 pre-tranfected for 16 hrs followed by compound addition and measured after 18 hrs in presence of zVAD by Cell Titer-Glo luminescent cell viability assay; type: toxicity, cell-based
3T3SA [18] = assay: Induction of apoptosis in RIP3shRNA transfected mouse 3T3SA cells co-transfected with shRNA-resistant RIP3 D143N mutant pre-tranfected for 16 hrs followed by compound addition and measured after 18 hrs in presence of zVAD by Cell Titer-Glo luminescent cell viability assay; type: toxicity, cell-based
3T3SA [19] = assay: Induction of apoptosis in vICA expression plasmid transfected mouse 3T3SA cells co-transfected with shRNA-resistant RIP3 mutRHIM incubated for 12 hrs by Cell Titer-Glo luminescent cell viability assay; type: toxicity, cell-based
3T3SA [20] = assay: Induction of apoptosis in RIP3 shRNA transfected mouse 3T3SA cells co-transfected with shRNA resistant RIP3 D143N mutant assessed as accumulation of FLAG-tagged RIP3 D143N mutant in pellet incubated for 3 hrs in presence of zVAD by immunoblot analysis; type: toxicity, cell-based
3T3SA [21] = assay: Induction of apoptosis in RIP3 shRNA transfected mouse 3T3SA cells co-transfected with shRNA resistant RIP3 D161G mutant assessed as accumulation of FLAG-tagged RIP3 D161G mutant in pellet incubated for 3 hrs in presence of zVAD by immunoblot analysis; type: toxicity, cell-based
MEF [22] = assay: Induction of apoptosis in MEF cells expressing RIP3 K51A/K51A mutant incubated for 18 hrs by Cell Titer-Glo luminescent cell viability assay; type: toxicity, cell-based; details: mouse
[23] = target: Serine/threonine-protein kinase Nek4 (Homo sapiens) (UniProt P51957); assay: Inhibition of human NEK4 using myelin basic protein as substrate at 1 uM in presence of 32P-ATP by Hotspot assay relative to control; values are per cent of control
[24] = target: T1, Serine/threonine-protein kinase 3 (Homo sapiens) (UniProt Q13188); assay: Inhibition of human MST2/STK3 using myelin basic protein as substrate at 1 uM in presence of 32P-ATP by Hotspot assay relative to control; values are per cent of control
T1 sequence (whole entry): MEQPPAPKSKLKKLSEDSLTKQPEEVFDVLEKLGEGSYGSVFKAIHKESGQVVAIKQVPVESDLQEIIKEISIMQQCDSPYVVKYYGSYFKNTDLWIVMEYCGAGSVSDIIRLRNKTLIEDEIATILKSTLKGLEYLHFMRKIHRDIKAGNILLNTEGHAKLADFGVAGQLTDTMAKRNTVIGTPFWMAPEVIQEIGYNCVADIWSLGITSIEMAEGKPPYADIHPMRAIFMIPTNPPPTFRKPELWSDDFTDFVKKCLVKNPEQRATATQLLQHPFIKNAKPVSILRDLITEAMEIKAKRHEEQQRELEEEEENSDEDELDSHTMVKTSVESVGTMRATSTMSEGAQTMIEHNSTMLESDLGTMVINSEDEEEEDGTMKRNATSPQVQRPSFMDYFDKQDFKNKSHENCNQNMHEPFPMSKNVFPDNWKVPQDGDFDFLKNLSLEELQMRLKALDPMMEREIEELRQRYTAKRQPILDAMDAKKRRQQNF

[25] = target: T2, Receptor-interacting serine/threonine-protein kinase 3 (Homo sapiens, UniProt Q9Y572); assay: Inhibition of recombinant human RIP3 kinase domain (1 to 328 residues) expressed in baculovirus expression system by fluorescence polarization assay
[26] = target: T2, Receptor-interacting serine/threonine-protein kinase 3; assay: Inhibition of recombinant human RIP3 kinase activity by ADP-glo assay
[27] = target: Serine/threonine-protein kinase ULK3 (Homo sapiens) (UniProt Q6PHR2); assay: Inhibition of human ULK3 using myelin basic protein as substrate at 1 uM in presence of 32P-ATP by Hotspot assay relative to control; values are per cent of control
Chain of Serine/threonine-protein kinase ULK3 (Homo sapiens) (Q6PHR2 whole entry): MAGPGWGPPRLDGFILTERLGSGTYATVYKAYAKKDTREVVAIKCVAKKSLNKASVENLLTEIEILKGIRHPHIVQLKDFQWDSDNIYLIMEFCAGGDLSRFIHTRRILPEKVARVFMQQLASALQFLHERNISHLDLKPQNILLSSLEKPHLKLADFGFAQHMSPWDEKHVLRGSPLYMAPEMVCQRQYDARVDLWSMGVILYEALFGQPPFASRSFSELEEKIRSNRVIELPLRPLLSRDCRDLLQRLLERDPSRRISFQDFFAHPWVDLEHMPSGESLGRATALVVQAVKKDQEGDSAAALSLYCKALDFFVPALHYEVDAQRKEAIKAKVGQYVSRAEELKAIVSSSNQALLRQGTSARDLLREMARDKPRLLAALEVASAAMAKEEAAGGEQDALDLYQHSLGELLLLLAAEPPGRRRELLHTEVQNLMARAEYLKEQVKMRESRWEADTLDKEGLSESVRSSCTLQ

Chain of Serine/threonine-protein kinase Nek4 (Homo sapiens) (P51957 whole entry, looked up): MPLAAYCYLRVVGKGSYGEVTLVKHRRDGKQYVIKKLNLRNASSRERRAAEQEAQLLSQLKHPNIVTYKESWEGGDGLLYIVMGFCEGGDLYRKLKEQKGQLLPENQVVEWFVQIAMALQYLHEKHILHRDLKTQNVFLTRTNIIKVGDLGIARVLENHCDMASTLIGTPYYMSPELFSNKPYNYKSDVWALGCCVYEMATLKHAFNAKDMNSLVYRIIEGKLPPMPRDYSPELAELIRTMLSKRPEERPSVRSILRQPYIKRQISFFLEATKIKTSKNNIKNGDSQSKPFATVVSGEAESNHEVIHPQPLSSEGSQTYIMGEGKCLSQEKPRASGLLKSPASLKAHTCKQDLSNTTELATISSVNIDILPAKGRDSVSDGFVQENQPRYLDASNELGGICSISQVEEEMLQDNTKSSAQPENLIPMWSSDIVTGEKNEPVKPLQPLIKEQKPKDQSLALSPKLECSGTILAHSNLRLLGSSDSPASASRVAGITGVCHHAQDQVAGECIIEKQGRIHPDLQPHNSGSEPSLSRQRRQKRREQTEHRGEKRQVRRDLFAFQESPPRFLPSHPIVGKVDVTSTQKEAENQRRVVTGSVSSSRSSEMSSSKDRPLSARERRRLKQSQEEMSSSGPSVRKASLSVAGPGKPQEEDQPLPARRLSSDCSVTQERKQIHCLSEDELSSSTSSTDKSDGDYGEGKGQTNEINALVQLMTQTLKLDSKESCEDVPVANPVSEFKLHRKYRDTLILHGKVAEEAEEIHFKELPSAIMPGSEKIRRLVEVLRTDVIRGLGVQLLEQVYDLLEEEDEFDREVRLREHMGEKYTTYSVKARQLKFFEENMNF
T2 sequence (Q9Y572 whole entry, the tested form may be a part): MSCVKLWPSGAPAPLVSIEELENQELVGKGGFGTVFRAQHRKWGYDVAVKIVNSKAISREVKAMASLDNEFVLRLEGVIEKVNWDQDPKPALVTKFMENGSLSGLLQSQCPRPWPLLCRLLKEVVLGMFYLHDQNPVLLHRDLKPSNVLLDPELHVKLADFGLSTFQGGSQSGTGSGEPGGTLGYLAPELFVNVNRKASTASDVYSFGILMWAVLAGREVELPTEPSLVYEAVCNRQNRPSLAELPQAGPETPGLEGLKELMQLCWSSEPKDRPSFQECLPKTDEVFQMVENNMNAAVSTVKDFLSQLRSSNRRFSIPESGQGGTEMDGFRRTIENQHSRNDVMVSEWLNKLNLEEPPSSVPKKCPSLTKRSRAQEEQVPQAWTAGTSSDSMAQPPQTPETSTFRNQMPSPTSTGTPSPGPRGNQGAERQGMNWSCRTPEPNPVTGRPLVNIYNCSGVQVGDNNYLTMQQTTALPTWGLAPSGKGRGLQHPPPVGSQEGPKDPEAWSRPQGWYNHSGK

SMILES	Activity (SVEC4-10 [1])	Activity (L929 [2])	Activity (3T3SA [3])	Activity (MEF [4])	Activity (SVEC4-10 [5])	Activity (L929 [6])	Activity (3T3SA [7])	Activity (MEF [8])	residual activity [23] [%]	residual activity [24] [%]	IC50 [25] [nM]	IC50 [26] [nM]	further results
CC(C)S(=O)(=O)c1ccc2nccc(Nc3ccc4scnc4c3)c2c1	Toxic	Toxic	Toxic	Toxic	Non-Toxic	Non-Toxic	Non-Toxic	Non-Toxic	95.6	101	–	–	Activity (3T3SA [9]): 62%; Activity (3T3SA [10]): 29%; Activity (3T3SA [11]): Toxic; Activity (3T3SA [12]): Toxic; Activity (SVEC4-10 [13]): Non-Toxic; Activity (3T3SA [14]): Toxic; Activity (MEF [15]): Toxic; Activity (MEF [16]): Toxic; Activity (3T3SA [17]): Non-Toxic; Activity (3T3SA [18]): Non-Toxic; Activity (3T3SA [19]): Non-Toxic; Activity (3T3SA [20]): Toxic; Activity (3T3SA [21]): Toxic; Activity (MEF [22]): Toxic
Cc1cc(-c2cnc(N)c3c(-c4ccc5scnc5c4)csc23)n(C)n1	Toxic	Toxic	Toxic	Toxic	Non-Toxic	Non-Toxic	Non-Toxic	Non-Toxic	97.9	93.8	8.6	6.5	–
CNC(=O)c1ccc2c(c1)ncn2-c1ccc(CC(=O)OC(C)(C)C)cc1	–	–	–	–	–	–	–	–	96.3	95.2	0.9	0.3	residual activity [27]: 95.4%
